Measured values reported in patent publication US11654167B2, “Pharmaceutical composition based on bacteriophages against F. nucleatum; use in the treatment of diseases associated with this pathogen” (priority 2016, dated 2023).

Key:
[1] = tested on: F. nucleatum; assay: in vivo bacteria count of F. nucleatum in co-infected rats; design: species or system Sprague Dawley rat; conditions: chlorhexidine 0.12% local cleaning and/or amoxicillin (50 mg/Kg) in water
Protocol: An evaluation is performed to determine the effect of these treatments on the microbiological count associated with periodontal destruction in Sprague Dawley rat models inoculated with P. gingivalis and F. nucleatum, the main pathogens of the etiology of periodontal disease.
(§1) Methodology consists in co-infecting rats with P. gingivalis and F. nucleatum, and treating or not treating them with the mixture of bacteriophages Fnpϕ02-14, Fnpϕ11 and Fnnϕ107 at different MOI. The procedure for each stage is described below:
(§2) Finally, on week 10, the sacrifice of the rats of the group is performed. The initial treatment of local cleaning with CHX 0.12% and the local administration of the bacteria mixture is performed under anesthesia for 5-10 sec. with isoflurane gas. The sacrifice of the rats was performed with an anesthesia overdose of Ketamine:Xylazine (2:1).
(§3) The mixture of the three lytic bacteriophages Fnpϕ02-14, Fnpϕ11 and Fnnϕ107, specific for F. nucleatum, is performed, with a concentration of 10^8, 10^10 and 10^8 UFP/mL, respectively. Afterwards, it was kept at 4° C. until it was used.
Each research group is composed by 3 subjects per cage, and there ware a number of 6 subjects per group. […]

[2] = tested on: F. nucleatum; assay: detection of F. nucleatum by PCR in co-infected rats; type: in vivo, Sprague Dawley rat; conditions: chlorhexidine 0.12% and/or amoxicillin
Protocol: as §1, §2, §3
Each research group is composed by 3 subjects per cage, and there ware a number of 6 subjects per group. The research groups are the following: Group 1 (Continuous treatment phage), in which the administration of the mixture of bacteriophages in a multiplicity of infection (MOI) of 0.01 (1 bacteria for 100 phages) is performed, in the same inoculation times as the bacteria mixture (week 2, 4, 6 and 8), for 4 days every time. […]

[3] = tested on: gingival tissue associated with the first molar; assay: histology of gingival tissue (hematoxylin-eosin), inflammatory response; type: in vivo, Sprague Dawley rat; conditions: chlorhexidine 0.12% and/or amoxicillin (50 mg/Kg)
Protocol: In order to perform the analysis of gingival tissue associated with the first molar once the piece is worn out, this one is fixed in a solution of paraformaldehyde at 10% for 24 hours. Afterwards, the bone is decalcified in an […] solution for 24 hours. The decalcified tissue was soaked in paraffin blocks, in order to be cut afterwards by a microtome in transversal sections for 4μ, in order to be finally stained with the hematoxylin-eosin staining. […] The presence or absence of inflammation in the tissue was examined by using the following parameters: Hematopoietic distribution, presence of vasodilation, thickness of keratinized epithelial tissue, presence of immune cells (lymphocytes, monocytes, polymorph nuclear, etc.), prisoners of inflammatory focus and cell infiltration in keratinized epithelium. In this way, the manifestations of acute or chronic inflammatory response and the normal, incipient, or established inflammatory response were determined.

[4] = tested on: RANKL and OPG; assay: bone reabsorption indicators RANKL and OPG in plasma by indirect ELISA; type: in vivo, Sprague Dawley rat; conditions: chlorhexidine 0.12% and/or amoxicillin
Protocol: The determination of bone reabsorption of the different subjects of treatment is performed based on measuring the molecules associated with this type of physiological response. The levels of RANKL and OPG molecules are measured by Enzyme-Linked ImmunoSorbent Assay (ELISA), specifically the ELISA indirect type, performed from a plasma sample. The blood sample was extracted as follows: the rat is deeply anesthetized with ketamine:xylazine, via the intraperitoneal route. The rat is treated with heparin 2 minutes before surgery, also via the intraperitoneal route with 200-300 μL. […]
Prior to the use of plasma, a quantification of proteins (mg/mL) of each sample is performed by the concentrated Bradford protocol (5×). […] Finally, the absorbance is measured at 595 nm in a plate reader (SQ-2800 model spectrophotometer, United Products & Instruments Inc., Dayton, USA). […]
It is mixed and protected from the light. […] Afterwards, in order to stop the reaction, 100 μL of NaOH 3N, in order to finally read the absorbency of each well at 405 nm in an ELISA reader. • In order to obtain the values of concentration for each sample, the Lambert-Beer formula was used: Abs405=ε*d*[mM]; • where ε: extinction coefficient 18.5*10^3 M^−1 cm^−1 and d: length of the well 1 cm. […]

[5] = tested on: alveolar bone of the first molar; assay: bone loss of alveolar bone of the first molar; type: in vivo, Sprague Dawley rat; conditions: chlorhexidine 0.12% and/or amoxicillin
Protocol: In order to determine bone loss, we measured directly the alveolar bone of the first molar in the hemi sectioned right jaw of each subject. In order to obtain the alveolar bone, the jaw extraction is performed and autoclaved for 20 min. The first cleaning is performed, removing the associated tissue. Afterwards, the bones are soaked in hydrogen peroxide at 3% for all night at room temperature. After this time, the pieces were washed with distilled water in order to eliminate any remainder of adhered tissue; the bone is brushed with toothpaste and finally washed with distilled water. Clean jaws are stained with methylene blue at 1% for 15 seconds, and then washed with distilled water to remove the excess of stain. The pieces are left to dry by air, and it is in this moment when the limit cement-enamel appears in the associated dental piece. The measure is obtained by measuring from the exposed base of the root of the tooth to the cement-enamel limit.

Structure (SMILES)	F. nucleatum count after versus before treatment [1]	detection of F. nucleatum by PCR, post-treatment versus pre-treatment samples [2]	inflammatory response in histological sections [3]	ratio RANKL/OPG versus control group without treatment [4]	bone loss of alveolar bone versus control group [5]
CC1(C)S[C@@H]2[C@H](NC(=O)[C@H](N)c3ccc(O)cc3)C(=O)N2[C@H]1C(=O)O [amoxicillin]	only the count in the post mortem sample decreases	lower count of positive detections	presence of an acute incipient inflammatory response	present significant differences	do not avoid bone loss
[H]/N=C(\N/C(=N/[H])NCCCCCCNC(=N)NC(=N)Nc1ccc(Cl)cc1)Nc1ccc(Cl)cc1 [chlorhexidine]	tendency to reducing bacteria count	lower count of positive detections	presence of an active acute inflammatory response	do not present significant differences	do not avoid bone loss
